Among the data in BindingDB's records for doi:10.3109/14756366.2013.776556 (King Fahd University of Petroleum & Minerals, 2014) are Ki values, retold here.

One test deals with D(2) dopamine receptor (Homo sapiens, UniProt P14416). Description: Binding Affinity Assay. The settings on record: pH 7.4; 25 °C. Here is the method:
The samples were incubated for 120 min at 25 °C, then the incubation was stopped by rapid filtration through Whatman GF/C glass fiber filters (presoaked in 0.5% polyethylenimine for 60 min). The filters were washed three times in 1mL of ice-cold 50mM Tris, 0.9% NaCl, pH 7.4. Nonspecific binding was determined in the presence of 10 μM haloperidol. The radioactivity bound to the filters was measured by liquid scintillation using a LS6500 Multi-Purpose scintillation Counter, Beckman.

Test [1] concerns the target T1, 5-hydroxytryptamine receptor 1A (Homo sapiens, UniProt P08908).
T1 sequence (P08908 whole entry): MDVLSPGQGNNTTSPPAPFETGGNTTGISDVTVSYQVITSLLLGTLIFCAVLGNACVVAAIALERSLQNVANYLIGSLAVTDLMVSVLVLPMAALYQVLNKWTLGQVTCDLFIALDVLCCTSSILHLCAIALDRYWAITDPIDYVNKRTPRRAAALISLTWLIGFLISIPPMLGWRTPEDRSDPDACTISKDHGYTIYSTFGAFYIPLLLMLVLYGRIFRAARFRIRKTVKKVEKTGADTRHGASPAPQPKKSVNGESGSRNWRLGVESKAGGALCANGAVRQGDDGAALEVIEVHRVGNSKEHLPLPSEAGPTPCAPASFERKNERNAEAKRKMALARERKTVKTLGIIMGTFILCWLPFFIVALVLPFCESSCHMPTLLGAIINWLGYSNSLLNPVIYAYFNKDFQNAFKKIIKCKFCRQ
The test can be described thus: Binding Affinity Assay. As to conditions: pH 7.4; 37 °C. Here is the method:
Human-cloned 5-HT1A serotonin receptors stably expressed in HEK293-EBNA cells (Perkin-Elmer, Waltham, MA) were radiolabeled with 1.0nM [3H]-8-OH-DPAT [Fargin et al., J. Biol. Chem., 264:[…]]. Samples containing 32 μg of membrane protein, different concentrations of each compound ranging from 0.1nM to 10 μM were incubated in a final volume of 500 μL of 50mM Tris-HCl pH 7.4, 5mM MgSO4for 120 min at 37 °C. After this incubation time, samples were filtered through Whatman GF/C glass microfiber filters presoaked in polyethylenimine 0.5% for at least 30 min prior to use. The filters were washed twice with 1mL of ice-cold buffer (50mM Tris-HCl, pH 7.4). Nonspecific binding was determined in the presence of 10 μM 5-HT. The radioactivity bound to the filters was measured by liquid scintillation using the LS6500 Multi-Purpose scintillation Counter, Beckman.

Sequence of D(2) dopamine receptor (P14416 whole entry): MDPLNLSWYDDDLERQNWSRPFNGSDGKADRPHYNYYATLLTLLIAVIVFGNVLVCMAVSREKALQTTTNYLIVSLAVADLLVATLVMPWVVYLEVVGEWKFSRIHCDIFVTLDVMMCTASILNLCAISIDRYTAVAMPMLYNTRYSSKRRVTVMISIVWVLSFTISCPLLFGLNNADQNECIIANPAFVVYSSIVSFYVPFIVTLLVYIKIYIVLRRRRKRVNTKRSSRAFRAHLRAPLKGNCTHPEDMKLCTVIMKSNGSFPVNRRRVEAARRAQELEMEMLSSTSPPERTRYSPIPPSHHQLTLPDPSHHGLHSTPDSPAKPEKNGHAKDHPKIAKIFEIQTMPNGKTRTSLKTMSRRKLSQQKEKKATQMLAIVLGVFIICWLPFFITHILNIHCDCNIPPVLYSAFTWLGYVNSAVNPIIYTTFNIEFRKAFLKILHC

On to `O=c1[nH]c2ccc(N3CCN(Cc4cncc(C5=CCCC5)c4)CC3)cc2[nH]1` [5-(4-((5-cyclopentenylpyridin-3-yl)methyl)piperazin-1-yl)-1H-benzo[d]imidazol-2(3H)-one (6f)], for which the inhibition constant Ki (commonly a dissociation constant, usually derived from enzyme kinetics or from competition with a known ligand) was determined as 3.1 nM at D(2) dopamine receptor and 1.7 nM in test [1].
The matching figures for `O=c1[nH]c2ccc(N3CCN(Cc4cccc(C5=CCCC5)c4)CC3)cc2[nH]1` [5-(4-(3-cyclopentenylbenzyl)piperazin-1-yl)-1H-benzo[d]imidazol-2(3H)-one (6e)]: 10.4 nM and 3.1 nM.
The matching figures for `O=c1[nH]c2ccc(N3CCN(Cc4cncc(-c5ccccc5)c4)CC3)cc2[nH]1` [5-(4-((5-phenylpyridin-3-yl)methyl)piperazin-1-yl)-1H-benzo[d]imidazol-2(3H)-one (6c)]: 12.6 nM and 5.3 nM.
For the molecule `O=c1[nH]c2ccc(C3CCN(Cc4ccc(-c5ccccc5)cc4)CC3)cc2[nH]1` [5-(1-(biphenyl-4-ylmethyl)piperidin-4-yl)-1H-benzo[d]imidazol-2(3H)-one (5a)], the Ki on D(2) dopamine receptor came to 96.2 nM; in test [1], 34.2 nM.
The matching figures for `O=c1[nH]c2ccc(C3CCN(Cc4ccc(-c5ccc(F)cc5)cc4)CC3)cc2[nH]1` [5-(1-((4'-Fluorobiphenyl-4-yl)methyl)piperidin-4-yl)-1H-benzo[d]imidazol-2(3H)-one (5b)]: 34.4 nM and 16.2 nM.
On to `O=c1[nH]c2ccc(N3CCN(Cc4ccc(-c5ccc(F)cc5)cc4)CC3)cc2[nH]1` [5-(4-((4'-fluorobiphenyl-4-yl)methyl)piperazin-1-yl)-1H-benzo[d]imidazol-2(3H)-one (6b)], for which the results for the Ki (on D(2) dopamine receptor; in test [1]) were 62.6 nM and 27.2 nM, respectively.
As for `O=c1[nH]c2ccc(N3CCN(Cc4ccc(-c5ccccc5)cc4)CC3)cc2[nH]1` [5-(4-(biphenyl-4-ylmethyl)piperazin-1-yl)-1H-benzo[d]imidazol-2(3H)-one (6a)], the Ki was 42.2 nM on D(2) dopamine receptor and 46.3 nM in test [1].
As to `O=c1[nH]c2ccc(C3CCN(Cc4cncc(-c5ccc(F)cc5)c4)CC3)cc2[nH]1` [5-(1-((5-(4-Fluorophenyl)pyridin-3-yl)methyl)piperidin-4-yl)-1H-benzo[d]imidazol-2(3H)-one (5d)], the figures for the inhibitory constant (Ki) (on D(2) dopamine receptor; in test [1]) were 24.6 nM and 9.42 nM, respectively.
As to `O=c1[nH]c2ccc(C3CCN(Cc4cncc(-c5ccccc5)c4)CC3)cc2[nH]1` [5-(1-((5-phenylpyridin-3-yl)methyl)piperidin-4-yl)-1H-benzo[d]imidazol-2(3H)-one (5c)], the Ki on D(2) dopamine receptor worked out at 18.5 nM; in test [1], 6.72 nM.
In the case of `O=c1[nH]c2ccc(N3CCN(Cc4cncc(-c5ccc(F)cc5)c4)CC3)cc2[nH]1` [5-(4-((5-(4-fluorophenyl)pyridin-3-yl)methyl)piperazin-1-yl)-1H-benzo[d]imidazol-2(3H)-one (6d)], the Ki at D(2) dopamine receptor came out at 82 nM; in test [1], 11.4 nM.
The matching figures for `Fc1ccc(-c2cncc(CN3CCN(c4cccc5c4OCCO5)CC3)c2)cc1` [1-(2,3-dihydro-1,4-benzodioxin-5-yl)-4-[[5-(4-fluorophenyl)pyridin-3-yl]methyl]piperazine]: 8.4 nM and 8.64 nM.
The matching figures for `O=c1[nH]c2ccc(C3CCN(Cc4cccc(C5=CCCC5)c4)CC3)cc2[nH]1` [5-(1-(3-cyclopentenylbenzyl)piperidin-4-yl)-1H-benzo[d]imidazol-2(3H)-one (5e)]: 8.12 nM and 1.2 nM.
The matching figures for `O=c1[nH]c2ccc(C3CCN(Cc4cncc(C5=CCCC5)c4)CC3)cc2[nH]1` [5-(1-((5-cyclopentenylpyridin-3-yl)methyl)piperidin-4-yl)-1Hbenzo[d]imidazol-2(3H)-one (5f)]: 4.26 nM and 6.3 nM.
`O=c1[nH]c2cccc(N3CCN(Cc4cccc(-c5ccccc5)c4)CC3)c2o1`: in test [1], the affinity, expressed as Ki, was 7.19 nM.
